In BindingDB's records for doi:10.7270/Q2TX3CSC (Vanderbilt Screening Center for GPCRs, Ion Channels and …, 2009) one finds EC50 data, which are given here for 40 compounds.

Structures are written as SMILES.

The first experiment has as its target T1, Solute carrier family 12 member 5 (Homo sapiens, UniProt Q9H2X9).
T1 sequence (Q9H2X9 whole entry): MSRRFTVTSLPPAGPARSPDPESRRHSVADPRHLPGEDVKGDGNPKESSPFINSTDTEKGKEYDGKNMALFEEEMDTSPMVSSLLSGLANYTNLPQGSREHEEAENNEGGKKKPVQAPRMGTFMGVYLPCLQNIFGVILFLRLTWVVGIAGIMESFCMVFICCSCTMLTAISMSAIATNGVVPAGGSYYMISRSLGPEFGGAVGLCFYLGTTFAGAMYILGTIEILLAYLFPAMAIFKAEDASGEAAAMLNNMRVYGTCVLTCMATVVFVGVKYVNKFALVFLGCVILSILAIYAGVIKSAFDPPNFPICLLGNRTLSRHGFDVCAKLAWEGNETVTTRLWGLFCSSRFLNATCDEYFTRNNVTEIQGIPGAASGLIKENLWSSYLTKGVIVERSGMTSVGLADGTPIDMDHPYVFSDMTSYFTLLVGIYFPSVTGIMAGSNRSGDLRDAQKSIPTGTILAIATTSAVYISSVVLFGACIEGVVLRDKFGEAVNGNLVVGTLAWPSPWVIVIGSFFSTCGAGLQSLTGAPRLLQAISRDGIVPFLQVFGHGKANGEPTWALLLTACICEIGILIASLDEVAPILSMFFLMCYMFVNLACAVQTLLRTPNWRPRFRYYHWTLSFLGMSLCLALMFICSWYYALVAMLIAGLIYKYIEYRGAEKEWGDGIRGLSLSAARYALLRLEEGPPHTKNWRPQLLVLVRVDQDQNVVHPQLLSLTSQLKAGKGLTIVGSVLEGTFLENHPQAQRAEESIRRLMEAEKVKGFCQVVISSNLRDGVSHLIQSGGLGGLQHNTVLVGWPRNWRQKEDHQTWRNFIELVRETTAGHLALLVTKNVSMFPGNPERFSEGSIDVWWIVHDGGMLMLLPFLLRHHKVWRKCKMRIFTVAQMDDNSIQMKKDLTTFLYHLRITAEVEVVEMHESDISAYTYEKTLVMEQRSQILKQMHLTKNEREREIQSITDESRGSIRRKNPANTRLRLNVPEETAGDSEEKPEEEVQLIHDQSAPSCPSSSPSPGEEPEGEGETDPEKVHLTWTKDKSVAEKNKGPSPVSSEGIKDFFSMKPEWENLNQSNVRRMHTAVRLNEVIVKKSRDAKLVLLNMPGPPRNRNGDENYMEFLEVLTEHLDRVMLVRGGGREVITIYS
Nature of the experiment: concentration-response of KCC2 transport modulators – cell-based, HEK293 KCC2, FluoZin-2 fluorescence, dose response (AID 1736).
Conditions: not given
`O=C(CSc1nnnn1-c1ccc(Cl)cc1)N1CCc2ccccc2C1` [2-[1-(4-chlorophenyl)tetrazol-5-yl]sulfanyl-1-(3,4-dihydro-1H-isoquinolin-2-yl)ethanone]: it took 4.09 µM to reach a half-maximal effect (EC50).
The same measure, in the same setting: as for `CC(C)(C)NC(=O)C(c1ccncc1)N(Cc1ccco1)C(=O)c1ccc(-c2ccccc2)[nH]1` (stereo not given) [N-[2-(tert-butylamino)-2-oxo-1-pyridin-4-ylethyl]-N-(furan-2-ylmethyl)-5-phenyl-1H-pyrrole-2-carboxamide], the figure is 7.02 µM; as for `CCOc1cc(S(=O)(=O)NCc2ccccc2)ccc1F` [3-ethoxy-4-fluoranyl-N-(phenylmethyl)benzenesulfonamide], 5.92 µM.
`O=C(Cn1c(-c2ccc(Cl)cc2)noc1=O)N1CCN(c2ccccc2F)CC1` [3-(4-Chloro-phenyl)-4-{2-[4-(2-fluoro-phenyl)-piperazin-1-yl]-2-oxo-ethyl}-4H-[1,2,4]oxadiazol-5-one]: the EC50 was found to be 228 µM.
`O=C(CSc1nnc(-c2c[nH]c3ccccc23)o1)N1CCCCC1` [SMR000003748]: the response was half-maximal at 1.81 µM (EC50).
`O=C(CN1C(=O)NC2(CCCC2)C1=O)Nc1nc(-c2ccc(F)cc2)cs1` [2-(2,4-diketo-1,3-diazaspiro[4.4]nonan-3-yl)-N-[4-(4-fluorophenyl)thiazol-2-yl]acetamide] gave an EC50 of 0.0699 µM.
With `O=C(CSc1nnc(-c2ccc(F)cc2)o1)N1CCN(C(=O)c2ccco2)CC1` [2-[5-(4-Fluoro-phenyl)-[1,3,4]oxadiazol-2-ylsulfanyl]-1-[4-(furan-2-carbonyl)-piperazin-1-yl]-ethanone], it took 7.01 µM to reach a half-maximal effect (EC50).
`Cc1cc([N+](=O)[O-])ccc1NCc1ccccc1` [2-methyl-4-nitro-N-(phenylmethyl)aniline] showed an EC50 of 1.74 µM.
For the compound `CC1(CCc2ccccc2)NC(=O)N(Cc2nnc(-c3ccccc3Br)o2)C1=O` (stereo not given) [3-[[5-(2-bromophenyl)-1,3,4-oxadiazol-2-yl]methyl]-5-methyl-5-(2-phenylethyl)imidazolidine-2,4-dione], the midpoint of the response, the EC50, lay at 14.3 µM.
`Cc1cccc(OCCc2nnc(N)s2)c1C` [5-[2-(2,3-Dimethyl-phenoxy)-ethyl]-[1,3,4]thiadiazol-2-ylamine] gave an EC50 of 37.5 µM.
With `NC(=S)NN=C1C(=O)N(Cc2ccccc2)c2ccccc21` [1-[(Z)-[2-oxidanylidene-1-(phenylmethyl)indol-3-ylidene]amino]thiourea], the midpoint of the response, the EC50, lay at 0.295 µM.
The compound `Fc1ccc(CSc2nncn2NC/C=C/c2ccccc2)cc1` [3-[(4-fluorobenzyl)thio]-N-(3-phenyl-2-propen-1-yl)-4H-1,2,4-triazol-4-amine] displayed an EC50 of 30.2 µM.
In turn, `Cc1[nH]c2ccccc2c1Cc1nnc(S)o1` yielded an EC50 of 3.21 µM.
As to `CCc1ccc(Nc2nnc(SCc3cc(=O)n4ccsc4n3)s2)cc1` [7-[[5-(4-ethylanilino)-1,3,4-thiadiazol-2-yl]sulfanylmethyl]-[1,3]thiazolo[3,2-a]pyrimidin-5-one], the EC50 was determined as 0.202 µM.
In the case of `CN1/C(=C\C(=S)NC(=O)c2cccc(Br)c2)C(C)(C)c2ccccc21` [SMR000254682], a half-maximal effect (EC50) was put at 5.4 µM.
Turning to `Cc1cc(C(=O)COC(=O)CCc2nc3ccccc3s2)c(C)n1C` [3-(1,3-benzothiazol-2-yl)propanoic acid [2-oxo-2-(1,2,5-trimethyl-3-pyrrolyl)ethyl] ester], the EC50 was 97.3 µM.
In the case of `CNC(=O)/C(=C\C=C\c1ccccc1)NC(=O)c1ccc([N+](=O)[O-])cc1` [MLS000570424], the EC50 was 2.8 µM.
For the compound `Cc1ccc(CSCCNC(=O)c2ccc(C)cc2)cc1` [4-methyl-N-[2-[(4-methylbenzyl)thio]ethyl]benzamide], the response was half-maximal at 2690 µM (EC50).
Turning to `COc1cc(OC)c(C2=NOC(C(=O)N3CCc4ccccc4C3)C2)cc1Cl` (stereo not given) [2-{[3-(5-chloro-2,4-dimethoxyphenyl)-4,5-dihydro-5-isoxazolyl]carbonyl}-1,2,3,4-tetrahydroisoquinoline], the EC50 was 6.59 µM.
`CC(C)c1onc(C(=O)N2CCN(Cc3ccccc3)CC2)c1[N+](=O)[O-]` [(4-benzylpiperazin-1-yl)-(4-nitro-5-propan-2-yl-1,2-oxazol-3-yl)methanone] displayed an EC50 of 0.34 µM.
Take `COc1cc(C(=S)N2CCOCC2)ccc1OC(=O)Cc1ccc(F)cc1` [(2-methoxy-4-morpholin-4-ylcarbothioyl-phenyl) 2-(4-fluorophenyl)ethanoate]: the response was half-maximal at 29.4 µM (EC50).
In turn, `CNc1ccc2oc(C[C@H]3O[C@@]4(CC[C@H]3C)O[C@H]([C@H](C)C(=O)c3ccc[nH]3)[C@H](C)C[C@H]4C)nc2c1C(=O)O` [MLS001056783] registered an EC50 of 11.3 µM.
Compound `Cc1cccc(-c2nc(C[S+]([O-])CC(=O)N3CCc4ccccc4C3)c(C)o2)c1` (stereo not given) [1-(3,4-dihydro-1H-isoquinolin-2-yl)-2-[[5-methyl-2-(3-methylphenyl)-1,3-oxazol-4-yl]methylsulfinyl]ethanone] yielded an EC50 of 7.28 µM.
On to `Cc1noc(/C=C/c2ccco2)c1S(=O)(=O)N1CCC(C(=O)N2CCc3ccccc3C2)CC1` [2-{[1-({5-[(E)-2-(2-furyl)vinyl]-3-methylisoxazol-4-yl}sulfonyl)piperidin-4-yl]carbonyl}-1,2,3,4-tetrahydroisoquinoline], for which the EC50 is 4.09 µM.
In turn, `Cc1cc(NC(=O)CSc2ccc(-c3ccc(F)cc3)nn2)no1` [2-[6-(4-fluorophenyl)pyridazin-3-yl]sulfanyl-N-(5-methyl-1,2-oxazol-3-yl)acetamide] gave an EC50 of 0.171 µM.
`CCCCCC(=O)Cc1cc(O)cc2c1C(=O)Oc1cc(O)c(C(=O)O)c(CCCCC)c1O2` [3,8-Dihydroxy-11-oxo-1-(2-oxo-heptyl)-6-pentyl-11H-dibenzo[b,e][1,4]dioxepine-7-carboxylic acid] showed an EC50 of 4.02 µM.
`Sc1nnc(Cc2cccc3ccccc23)o1` [5-(1-naphthalenylmethyl)-3H-1,3,4-oxadiazole-2-thione] gave an EC50 of 0.304 µM.
In the case of `COc1cccc(C=c2sc(=CC(=O)c3ccc(C)cc3)[nH]c2=O)c1OC` [5-[(2,3-dimethoxyphenyl)methylidene]-2-[2-(4-methylphenyl)-2-oxidanylidene-ethylidene]-1,3-thiazolidin-4-one], the EC50 stood at 15.5 µM.
With `CS/C(=N\Cc1ccc(F)cc1)NS(=O)(=O)c1cccs1` [3-(4-fluorobenzyl)-2-methyl-1-(2-thienylsulfonyl)isothiourea], a half-maximal response (EC50) required 0.702 µM.
Compound `C=C(C)Cn1c(N2CCC(Cc3ccccc3)CC2)nc2c1c(=O)[nH]c(=O)n2C` [3-methyl-7-(2-methylprop-2-enyl)-8-[4-(phenylmethyl)-1-piperidinyl]purine-2,6-dione] came in with a half-maximal effective concentration (EC50) of 20.4 µM.
For `O=c1c2ccccc2c(-c2nnc(S)o2)nn1Cc1ccccc1` [2-(phenylmethyl)-4-(2-sulfanylidene-3H-1,3,4-oxadiazol-5-yl)-1-phthalazinone], it took 2.98 µM to reach a half-maximal effect (EC50).
For the compound `Sc1nnc(CNc2cccc(Cl)c2)o1` [5-[(3-chloroanilino)methyl]-3H-1,3,4-oxadiazole-2-thione], the EC50 worked out at 1.75 µM.
Consider `Cc1ccc(S(=O)(=O)N(CCC(=O)O)Cc2ccc(Cl)cc2)cc1` [3-[(4-chlorobenzyl)-tosyl-amino]propionic acid], for which a half-maximal effect (EC50) was put at 0.491 µM.

Staying with this experiment, now noted: inactive by the depositor's call.
For `O=c1oc2ccccc2c(Nc2cc3ccccc3cc2O)c1[N+](=O)[O-]` [3-nitro-4-[(3-oxidanylnaphthalen-2-yl)amino]chromen-2-one], the response was half-maximal at 11.4 µM (EC50).
On the same count and under the same terms, with `Cc1ccc(-c2nn(Cc3ccccc3)cc2/C=C/C(=O)O)cc1` [(E)-3-[1-benzyl-3-(4-methylphenyl)pyrazol-4-yl]prop-2-enoic acid] the figure was 12.1 µM; with `COc1ccccc1-c1nc(C#N)c(N2CCC(Cc3ccccc3)CC2)o1` [2-(2-methoxyphenyl)-5-[4-(phenylmethyl)-1-piperidinyl]-4-oxazolecarbonitrile], 0.733 µM; with `Cc1cccc(N2CCN(C(=O)CCCn3c(=S)[nH]c4cc5c(cc4c3=O)OCO5)CC2)c1C` [MLS000095366], 22.6 µM.
The same measure, in the same setting: as for `O=C(/C=C/c1cccc([N+](=O)[O-])c1)Nc1cccc(NC(=O)c2cccs2)c1` [MLS000574752], the figure is 3.68 µM; as for `COC(=O)[C@@H](NC(=O)O[C@@H]1C(=O)c2cc(Br)ccc2O[C@H]1c1cccc(OC)c1)C(C)C` [(2S)-2-[[(2S,3S)-6-bromo-4-keto-2-(3-methoxyphenyl)chroman-3-yl]oxycarbonylamino]-3-methyl-butyric acid methyl ester], 33.7 µM; as for `COc1ccc(C(=O)CSc2nnnn2Cc2ccccc2)cc1` [1-(4-methoxyphenyl)-2-[[1-(phenylmethyl)-1,2,3,4-tetrazol-5-yl]sulfanyl]ethanone], 1.68 µM.

The EC50 is the midpoint of the concentration-response curve. The low end stands for higher potency in that assay, the high end for lower potency in that assay.
